This note sets out measurements from US20250268931A1, “TRANSCRIPTIONAL INHIBITOR FOR IMMUNE-RELATED GENE” (The University of Tokyo, priority 2022, published 2025).

The experiment has as its system IFN-β. Description: IFN-β concentration in culture supernatant of LPS-stimulated Raw264.7 cells (ELISA). It is filed as cell-based. Particulars: PIPA 1, 3 or 10 μM 24 h, then LPS 20 ng/mL 16 h. As for the experimental part:
Raw264.7 cells, a macrophage cell line, were seeded on a 96-well plate at a cell density of 2×10^4 cells/well, and were then culture for 8 hours for adhesion. Thereafter, IRF-PIPA was added to the cultured cells to final concentrations of 1, 3, or 10 μM. After completion of the culture for 24 hours, LPS was added to the cultured cells to a final concentration of 20 ng/mL, and the obtained mixture was then cultured for 16 hours, followed by the recovery of the supernatant. The supernatant was 2-fold diluted with 1% BSA-PBS, and the IFN-β concentration was then measured by ELISA.
Raw264.7 cells, a cell line, were purchased from RIKEN Cell Bank, and were then cultured using D-MEM (Nacalai Tesque) containing 10% FBS (SIGMA-ALDRICH) and Penicillin-Streptomycin mixed solution (Nacalai Tesque).
2×10^4 Raw264.7 cells were seeded on a plate, and were then treated with IRF-PIPA 1, IRF-PIPA 2, IRF-PIPA 3 or IRF-PIPA 4 for 24 hours. Thereafter, the cells were stimulated with LPS (Lipopolysaccharide, SIGMA-ALDRICH) for 16 hours, and the culture supernatant was then recovered. The concentration of cytokine in the culture supernatant was measured using ELISA kit (R&D SYSTEMS) according to the standard protocols. The culture supernatant was diluted with 1% BSA-PBS, as necessary, and was then analyzed. 2.5×10^5 Mouse peritoneal macrophages were seeded on a plate, and were then treated with IRF-PIPA 3 for 16 or 24 hours. Thereafter, the cells were stimulated with Poly(I:C) (InvivoGen) for 16 hours or with mRNA vaccine (Moderna) for 20 to 24 hours, and the culture supernatant was then recovered. The concentration of cytokine in the culture supernatant was measured using ELISA kit (R&D SYSTEMS) according to the same standard protocols. On the other hand, the concentration of cytokine in mouse plasma was measured by administering 400 μg/mouse IRF-PIPA 3 into the abdominal cavity of wild-type mice, then administering 250 μg of Poly(I:C) into the same abdominal cavity 24 hours after the IRF-PIPA 3 administration, then collecting blood further 2 hours after the Poly(I:C) administration, and then measuring the cytokine concentration in the plasma using ELISA kit (R&D SYSTEMS) according to standard protocols.
In general terms: ELISA stands for enzyme-linked immunosorbent assay.

The structures appear in SMILES notation.

Take `CC(=O)Nc1cn(C)c(C(=O)Nc2cc(C(=O)NCCC(=O)Nc3cc(C(=O)Nc4cn(C)c(C(=O)NCCCC(=O)Nc5cc(C(=O)Nc6cc(C(=O)NCCC(=O)Nc7cc(C(=O)Nc8cc(C(=O)NCCCN(C)C)n(C)c8)n(C)c7)n(C)c6)n(C)c5)n4)n(C)c3)n(C)c2)n1` [IRF-PIPA 1]: the “concentration dependence of suppression of IFN-β production” value is recorded as “concentration dependence was not observed”.

On to `CC(=O)Nc1cn(C)c(C(=O)Nc2cc(C(=O)NCCC(=O)Nc3cc(C(=O)Nc4cc(C(=O)NCCCC(=O)Nc5cn(C)c(C(=O)Nc6cc(C(=O)NCCC(=O)Nc7cc(C(=O)Nc8cc(C(=O)NCCCN(C)C)n(C)c8)n(C)c7)n(C)c6)n5)n(C)c4)n(C)c3)n(C)c2)n1` [IRF-PIPA 2], for which the “concentration dependence of suppression of IFN-β production” value is given as “concentration dependence was not observed”.
